# Measured values: patent publication US9683014B2, “Dipeptide mimetics of NGF and BDNF neurotrophins” (UCHREZHDENIE ROSSIISKOI AKADEMII MEDITSYNSKIKH NAUK …, priority 2009, dated 2017)
# Read-outs that look alike come from different tables or passages of the source. Marks after values point to notes of the source that are not given here.
# Columns and labels:
# rats = test system: rats
# Method: The experiments were conducted on white male outbred rats weighing 250-280 g. Haloperidol (1.0 mg/kg i.p.), a D1/D2 dopamine receptor blocker, was used to induce catalepsy. The intensity of catalepsy was assessed by measuring the time during which the animal maintained an assumed posture. The measurements were performed 60 minutes after the haloperidol injection. The test compound was administered intraperitoneally at selected doses (0.01, 0.1, 1.0 and 5.0 mg/kg) 24 hours prior to haloperidol. Control animals were treated with an equivalent volume of distilled water. Statistical data treatment was carried out using the exact Fisher test.
# Wistar rats = details: 1 mg/kg i.p. x7
# Method: The experiments were carried out on male Wistar rats weighing 280-400 g. Animals were anesthetized and scalped followed by being placed in the stereotaxis device. A skewed incision was made in the skull 1 mm wide: the start point for incision was at the level of bregma (AP=0.0) and 2 mm lateral of it (L=±2); the end point for incision was 2 mm caudal of bregma and 1 mm lateral of it (AP=2.0, L=±1). Following the sawing of the skull bone, the dura mater was incised carefully in the sawcut area. A sterile curved needle was inserted into the incision to a depth of 6.2 mm from the bone surface (DV=−6.2). By the simultaneous use of two screws in the stereotaxis device, the needle was moved slowly almost to the end point of the skewed incision. Then the needle was lifted slowly from the incision. The procedure was repeated twice on each hemisphere. Sham operation was similar to the transection procedure except that the needle was inserted to a depth of 3 mm from the bone surface (DV=−3.0). The first injection of the test compound (1 mg/kg i.p.) in the treatment group or of distilled water in the control group was made 2 hours after the transection. Further injections were made every 48 hours. In the course of the experiment each animal received 7 injections of the test compound.
# To detect behavioral abnormalities induced by the transection of the septo-hippocampal pathway, the open-field test was used. The choice of this test was based on the following studies: 1) Lamprea M. R., Cardenas F. P., Silveira R., Walsh T. J., Morato S. Effects of septal cholinergic lesion on rat exploratory behavior in an open-field. Braz. J. Med. Biol. Res. 2003, 36(2), 233-238; 2) Cassel J. S., Kelche C., Peterson G. M., Ballough G. P., Goepp I., Will B. Graft-induced behavioral recovery from subcallosal septohippocampal damage in rats depends on maturity stage of donor tissue. Neuroscience, 1991, 45(3), 571-586. Animals were tested in the open-field device 48 hours after the last injection of the test compound (at 14 days after surgery). Differences between experimental groups were assessed according to the Wilcoxon paired test. The data are expressed as the median values for the respective samples.
# [1] = test system: rats with photothrombosis of the prefrontal cortex
# Method: Male outbred rats weighing 180-200 g were used.
# Experimental stages: surgery for photothrombosis, evaluation of motor activity (before and at 9 days after photothrombosis); PAR conditioning and the retention test at 9 days after photothrombosis; animal sacrifice, excision and fixation of the brain; morphologic examination and ischemic zone volume calculation.
# The test substance was administered intraperitoneally at a dose of 1 mg/kg using the following regimen: at 1 h after surgery, at 24 h after the first administration, at 4 days and 6 days after the first administration.
# PAR conditioning was performed according to the following protocol: The latency time (LT) was defined as the time between the start of testing and the moment of crossing the hole dividing the light and dark compartments. On day 1 the rat was placed in the light compartment (a 100 W light bulb) and, having explored it for a certain time (LT to learning), crossed into the dark compartment. Thereafter the door leading to this compartment was closed, and the rat was allowed to stay there for 5 min. One hour later the procedure was repeated by taking the rat out of the dark compartment. On the next day this procedure was repeated twice with a 1 h interval. During the second visit by the rat to the dark compartment the door was closed and electric current was passed through the metal bars in the floor (1.3 mA, 50 Hz, 5 sec). The PAR conditioning was considered established when the LT was at least 300 sec. Animals with lower LT values were excluded from the experiments.
# A bilateral focal ischemic infarction of the prefrontal cortex of the rat brain (the Fr1 and Fr2 fields according to the atlas of Paxinos and Watson, 1986) was produced by the photoinduced thrombosis method (Watson et al., 1985). Animals were anesthetized with chloral hydrate (300 mg/kg i.p.). The photosensitive dye Bengal red (Sigma Chemical Co.) was injected into the jugular vein (3% solution, 40 mg/kg). The animal's head was clamped in the stereotaxis device, and the periosteum was removed after a longitudinal incision of the skin.
# A light guide (the output light beam diameter 3 mm) was placed at a distance of 1 mm from the skull surface using the following coordinates: 2.00 mm rostral of the bregma and 2.00 mm lateral of the sagittal suture. Cold light illumination (a xenon lamp source, 25 V, 250 W) was carried out for 15 min at either side. Sham-operated animals were subjected to the same procedure except for the Bengal red injection. To assess their functional status, the animals were evaluated for their motor activity (MA) in a RODEO-1 automatic unit with an observation time of 5 min. The MA was analyzed before and at 9 days after the photothrombosis of the prefrontal cortex.
smiles,measurement,setting,value
"NCCCC[C@H](NC(=O)[C@H](CCC(=O)O)NC(=O)CCC(=O)O)C(=O)NCCCCCCNC(=O)[C@H](CCCCN)NC(=O)[C@H](CCC(=O)O)NC(=O)CCC(=O)O [GK-2, bis-(N-monosuccinyl-glutamyl-lysine) hexamethylenediamide]",Intensity of catalepsy (% of control),"rats; 0.01 mg/kg i.p. 24 h prior to haloperidol 1.0 mg/kg i.p., measured 60 min after haloperidol",14* % of control
same,Intensity of catalepsy (% of control),rats; 0.1 mg/kg i.p. 24 h prior to haloperidol,98 % of control
same,Intensity of catalepsy (% of control),rats; 1.0 mg/kg i.p. 24 h prior to haloperidol,25* % of control
same,Intensity of catalepsy (% of control),rats; 5.0 mg/kg i.p. 24 h prior to haloperidol,13* % of control
same,horizontal motor activity in the open-field test (median),"Wistar rats; 1st minute, 14 days after surgery, transection 11.5, sham 21",12.5
same,horizontal motor activity in the open-field test (median),"Wistar rats; 2nd minute, transection 12, sham 14",11.5
same,horizontal motor activity in the open-field test (median),"Wistar rats; 3rd minute, transection 19, sham 9.5",15.5
same,horizontal motor activity in the open-field test (median),"Wistar rats; 4th minute, transection 11.5, sham 9",6.5*
same,retention of the PAR,[1]; 1 mg/kg i.p.,100%
same,"latency time of PAR, individual rats","[1]; 1 mg/kg i.p. at 1 h, 24 h, 4 and 6 days, at 8 days after photothrombosis, saline 20-105, sham 300",300 s
same,"latency time of PAR, group mean","[1]; 1 mg/kg i.p., n = 9, saline 59.2, sham 300",300 s
same,latency time of PAR,"[1]; 1 mg/kg i.p., photothrombosis alone 59.2 sec",at least 300 sec
